In US20260055126A1, “SMALL MOLECULE COMPOUNDS WITH PHOSPHORYLATED ARYL STRUCTURES AND USE THEREOF” (HANGZHOU PHECDAMED CO., LTD., priority 2022, published 2026):

Columns and labels:
[1] = molecular target: recombinant TEAD1 protein central pocket (Homo sapiens (Human), UniProt P28347); assay: Competitive thiol binding assay (CPM assay), TEAD1; conditions: 150 nM recombinant TEAD protein, 150 nM CPM
Procedure: Diluting the tested compound in gradient to 5 uL with buffer (25 mM HEPES, 150 mM NaCl, pH6.5), then adding 5 μL of the newly prepared 0.45 uM recombinant TEAD protein solution, and incubating at room temperature for 10 minutes. […] After shaking the plate at room temperature for 1 hour, measuring the fluorescence intensity (Ex/Em: 380/470 nm).

[2] = SD rat plasma pharmacokinetic test; format: in vivo
Procedure: Animal information: SD rats, male, n=6, about 180-200 g, purchased from Sibeifu (Beijing) Biotechnology Co., Ltd.
Animal dietary status: Animals are fasted for at least 12 h before administration and resumed eating 4h after administration; during the experiment, animals are allowed to drink water freely.
Administration: administering the compound to experimental animals (n=3) by intragastric administration at a dose of 10 mg/kg, and the solvent is 0.5% CMC-Na; administering the compound to experimental animals (n=3) by intravenous injection at a dose of 1 mg/kg, and the solvent is DMSO:PEG400:normal saline=5:30:65, preparing immediately before use.
Sample collection: collecting about 0.25 mL of whole blood at each time point, anticoagulating with EDTA-K2, and placing on ice immediately after collection, within 0.5 h after collection, centrifuging at 4° C., 2000 g for 5 min, and sucking up all plasma and placing in labeled EP tubes, placing the EP tubes on ice, and freezing the plasma samples in a −60˜−90° C. refrigerator within 0.5 h.
Sample processing: centrifuging whole blood samples at 4° C., 2000 g for 5 min within 30 min after collection to separate plasma, and collecting the upper plasma sample into a sample tube.
Sample testing and data processing: Using LC-MS/MS method to detect the concentration of the original drug in plasma samples at each time point. WinNonlin is used for fitting and pharmacokinetic parameter calculation.

[3] = molecular target: recombinant TEAD2 protein (218-447, Uniprot ID: Q15562) (Homo sapiens (Human), UniProt Q15562); assay: Thermal shift assay (protein melting point curve), TEAD2; format: binding; conditions: 10 μM TEAD protein, 50 μM test compound
[4] = Mouse plasma pharmacokinetic test; format: in vivo, CD-1 mice
From the text: In this example, different compounds are used to perform a mouse pharmacokinetic experiment, and the specific steps are as follows: Animal information: CD-1 mice, male, about 20 g, purchase from Beijing Weitonglihua Experimental Animal Technology Co., Ltd.
Animal dietary status: Animals are not fasted before administration and allowed to drink water freely.
Compound preparation method: for intragastric administration (IG)(G1 group), preparing with 0.5% CMC-Na, and for intravenous injection(IV) (G2 group), preparing 5% DMSO+30% PEG400+65% water. […]
Sampling time points of G1 group: 8 points in total, namely 10 min, 30 min, 1 h, 2 h, 4 h, 6 h, 8 h and 24 h after administration, among them, animals G1M01-G1M03 are sampled at 3 time points, namely 10 min, 1 h and 6 h; animals G1M04-G1M06 are sampled at 3 time points, namely 30 min, 2 h and 8 h; animals G1M07-G1M09 are sampled at 2 time points, namely 4 h and 24 h.
Sampling time points of G2 group: 9 points in total, namely 5 min, 10 min, 30 min, 1 h, 2 h, 4 h, 6 h, 8 h, 24 h after administration. It is recommended that animals G2M01-G2M03 are sampled at 3 time points, namely 5 min, 1 h, and 6 h; animals G2M04-G2M06 are sampled at 3 time points, namely 10 min, 2 h, and 8 h; animals G2M07-G2M09 are sampled at 3 time points, namely 30 min, 4 h, and 24 h.
Sample collection: On the day of the experiment, collecting approximately 0.1 mL of whole blood samples at each preset time point and placing in EDTA-K2 anticoagulant tubes.
Sample processing: Within 30 minutes after whole blood sample collection, centrifuging at 4° C., 12,000 rpm for 5 minutes to separate plasma, collecting the upper plasma sample into a sample tube, and freezing the plasma sample in a −10˜−30° C. refrigerator within 30 minutes and transferring to a −60˜−90° C. refrigerator within 24 hours.
Sample testing and data processing: LC/MS/MS testing, WinNonlin for fitting and pharmacokinetic parameter calculation.

Chain of recombinant TEAD1 protein central pocket (P28347 whole entry): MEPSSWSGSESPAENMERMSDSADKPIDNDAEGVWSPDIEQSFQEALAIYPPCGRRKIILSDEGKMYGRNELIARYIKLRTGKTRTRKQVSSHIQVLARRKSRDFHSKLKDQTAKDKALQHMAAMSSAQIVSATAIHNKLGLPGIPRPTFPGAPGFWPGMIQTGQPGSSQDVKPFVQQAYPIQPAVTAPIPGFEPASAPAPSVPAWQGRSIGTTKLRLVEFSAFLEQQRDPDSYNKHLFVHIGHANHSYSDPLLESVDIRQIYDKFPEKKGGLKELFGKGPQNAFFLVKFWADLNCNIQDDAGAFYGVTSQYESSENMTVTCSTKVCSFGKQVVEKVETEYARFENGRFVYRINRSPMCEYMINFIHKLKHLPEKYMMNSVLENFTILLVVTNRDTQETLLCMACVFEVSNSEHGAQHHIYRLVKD
Chain of recombinant TEAD2 protein (218-447, Uniprot ID: Q15562) (Q15562 218-447): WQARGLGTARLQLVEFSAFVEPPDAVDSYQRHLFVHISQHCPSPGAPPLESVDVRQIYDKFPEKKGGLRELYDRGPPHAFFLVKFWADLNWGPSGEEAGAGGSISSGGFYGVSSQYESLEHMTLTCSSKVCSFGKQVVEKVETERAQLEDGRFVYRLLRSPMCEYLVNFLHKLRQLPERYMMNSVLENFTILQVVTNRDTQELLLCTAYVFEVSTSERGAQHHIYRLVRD

In the case of CP(C)(=O)c1ccc(NCc2ccc(C(F)(F)F)cc2)c(-c2nccc(OC3COC3)n2)c1 [Compound 17], the IC50 [1] is reported as 290 nM, the “pharmacokinetic properties in SD rats” value [2] is reported as “good pharmacokinetic properties” and the AUC0-t ([2]; SD rats, IG 10 mg/kg) is reported as 4440 ng·h/mL. The “AUC0-∞” value ([2]; SD rats, IG 10 mg/kg) was 4510 ng·h/mL, the Cmax ([2]; SD rats, IG 10 mg/kg) was 1480 ng/mL and the MRT0-t ([2]; SD rats, IG 10 mg/kg) was 2.25 h. The “MRT0-∞” value ([2]; SD rats, IG 10 mg/kg) was 2.37 h, the Tmax ([2]; SD rats, IG 10 mg/kg) was 0.50 (0.5, 0.5) h and the t1/2 ([2]; SD rats, IG 10 mg/kg) was 1.26 h. For the same molecule, the “Absolute bioavailability (%)” value ([2]; SD rats, IG 10 mg/kg vs IV 1 mg/kg) was 84.9%, the AUC0-t ([2]; SD rats, IV 1 mg/kg) was 506 ng·h/mL and the “AUC0-∞” value ([2]; SD rats, IV 1 mg/kg) was 523 ng·h/mL. It also gave a CL ([2]; SD rats, IV 1 mg/kg) of 32.83 mL/min/kg, a Cmax ([2]; SD rats, IV 1 mg/kg) of 333 ng/mL and an MRT0-t ([2]; SD rats, IV 1 mg/kg) of 1.52 h. The “MRT0-∞” value ([2]; SD rats, IV 1 mg/kg) was 1.73 h, the Vss ([2]; SD rats, IV 1 mg/kg) was 3.36 L/kg and the t1/2 ([2]; SD rats, IV 1 mg/kg) was 1.18 h. The “Δ T m (TEAD2)” value [3] was “++”, the F % ([4]; CD-1 mice, IG 10 mg/kg vs IV 1 mg/kg) was 51.9% and the AUC0-t ([4]; CD-1 mice, single IG 10 mg/kg) was 4662 ng·h/mL. For the same molecule, the “AUC0-∞” value ([4]; CD-1 mice, single IG 10 mg/kg) was 5688 ng·h/mL, the Cmax ([4]; CD-1 mice, single IG 10 mg/kg) was 1477 ng/mL and the MRT0-t ([4]; CD-1 mice, single IG 10 mg/kg) was 2.84 h. The “MRT0-∞” value ([4]; CD-1 mice, single IG 10 mg/kg) was 4.66 h, the Tmax ([4]; CD-1 mice, single IG 10 mg/kg) was 0.5 h and the t1/2 ([4]; CD-1 mice, single IG 10 mg/kg) was 3.46 h. The AUC0-t ([4]; CD-1 mice, single IV 1 mg/kg) was 899 ng·h/mL, the “AUC0-∞” value ([4]; CD-1 mice, single IV 1 mg/kg) was 924 ng·h/mL and the CL ([4]; CD-1 mice, single IV 1 mg/kg) was 18.03 mL/min/kg. For the same molecule, the Cmax ([4]; CD-1 mice, single IV 1 mg/kg) was 598 ng/mL, the MRT0-t ([4]; CD-1 mice, single IV 1 mg/kg) was 1.55 h and the “MRT0-∞” value ([4]; CD-1 mice, single IV 1 mg/kg) was 1.80 h. For the same molecule, the Vss ([4]; CD-1 mice, single IV 1 mg/kg) was 1.947 L/kg, the t1/2 ([4]; CD-1 mice, single IV 1 mg/kg) was 1.94 h and the “pharmacokinetic properties in mice” value ([4]; mice) was “good pharmacokinetic properties”.
